Source: patent US7179792B2, “Combination product of a 1,4-benzothiepine 1,1-dioxide compound with at least one other active ingredient and the use of the product” (Sanofi-Aventis Deulschland GmbH, priority 2001, dated 2007)

Test system: Male Syrian hamsters (Mesocricetus auratus)
Assay: Plasma lipid levels in hamsters fed 0.1% cholesterol, oral treatment for 10 days
Assay type: in vivo
Details: feed + 0.1% CH; for Plasma Cholesterol % / Plasma Triglycerides %: Cholesterol ctr. = 100; for Plasma Cholesterol / Plasma LDL / Plasma Triglycerides: plasma day 10
Method: The synergistic activity of the combination product of a compound of formula I with the other active ingredient was tested in an animal experiment. For this purpose, compound V1 from the compound of formula I was tested: Hamsters were used for the biological testing of the combination product of the invention. Male Syrian hamsters (Mesocricetus auratus) from 8 to 10 weeks of age were used for the experiment. The animals received a standard feed (Teklad 8604M) supplemented with 0.1% cholesterol. An additional normal control group received only standard feed. The test substances were administered orally by gavage once a day on 10 consecutive days, and the control group was treated with the vehicle. Feces were collected on days 5 and 6 of the experiment for bile acid analysis. Retroorbital blood was taken from the animals on day 10 of the experiment, and the lipid levels in the plasma were determined. Radioactive tracers were administered orally to the animals on day 9 of the experiment to determine the cholesterol absorption in analocy to the method described by Zilversmith et al. On day 11 of the experiment, the animals were sacrificed, and the animals' livers were removed for cholesterol analysis and preparation of microsomes. The 7α-hydroxylase activity was determined in the liver microsomes ex vivo by a modified method of Hylemon et al. [table] • K00004513 employed as stock solution (1 mg/ml in EtOH) • Substances are dissolved in 2% EtOH in a final concentration of 5%. • The solutions are then suspended with 0.4% potato starch. • Administration takes place 1× in the morning with 10 ml/kg Feed: Teklad 8604M CH: 032201 M Experimental animals: Male Syrian hamsters (Mesocricetus auratus) supplied by Harlan 100–120 g at the start of adaptation Measured Parameters: • Feed consumption • Animal weight (weekly) • Liver weight • Safety parameters (CH; TG; ALAT/ASAT; AP; HDULDL) • Liver cholesterol (HPLC)=1×500 mg in EtOH/KOH • CYP7 activity (liver microsomes as group pool of 0.5 g each—preparation on day of experiment) • Feces collected on day 5–7 for bile acid determination

CCCC[C@]1(CC)CS(=O)(=O)c2ccc(N(C)C)cc2[C@@H](c2cccc(NC(=O)CCCCNC[C@H](O)[C@@H](O)[C@H](O)[C@H](O)CO)c2)[C@H]1O [V1]
Plasma Cholesterol % (0.1 mg/kg/d oral): 120% | Plasma Triglycerides % (0.1 mg/kg/d oral): 115% | Plasma Cholesterol (0.1 mg/kg/d oral): 4.20 mmol/L | Plasma LDL (0.1 mg/kg/d oral): 1.06 mmol/L | Plasma Triglycerides (0.1 mg/kg/d oral): 1.87 mmol/L | Plasma Cholesterol % (0.3 mg/kg/d oral): 114% | Plasma Triglycerides % (0.3 mg/kg/d oral): 108% | Plasma Cholesterol (0.3 mg/kg/d oral): 4.01 mmol/L | Plasma LDL (0.3 mg/kg/d oral): 1.18 mmol/L | Plasma Triglycerides (0.3 mg/kg/d oral): 1.75 mmol/L | Plasma Cholesterol % (1 mg/kg/d oral): 92% | Plasma Triglycerides % (1 mg/kg/d oral): 124% | Plasma Cholesterol (1 mg/kg/d oral): 3.23 mmol/L | Plasma LDL (1 mg/kg/d oral): 0.92 mmol/L | Plasma Triglycerides (1 mg/kg/d oral): 2.02 mmol/L

O=C1[C@H](CC[C@H](O)c2ccc(F)cc2)[C@@H](c2ccc(O)cc2)N1c1ccc(F)cc1 [Ezetimibe, ezetimibe, reference compound]
Plasma Cholesterol % (0.1 mg/kg/d oral): 98% | Plasma Triglycerides % (0.1 mg/kg/d oral): 100% | Plasma Cholesterol (0.1 mg/kg/d oral): 3.44 mmol/L | Plasma LDL (0.1 mg/kg/d oral): 1.04 mmol/L | Plasma Triglycerides (0.1 mg/kg/d oral): 1.63 mmol/L
